target: T1, FLK-1 receptor (Mus musculus, UniProt P35918); assay: FLK-1 ELISA (kinase activity of the FLK-1 receptor in FLK-1/NIH3T3 cells, VEGF stimulated); type: cell-based; design: concentration or dose not given beside the values
T1 construct: expressed in transfected cells; host or cells: NIH3T3 C7#3
Summary of the method: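 An ELISA using affinity-purified rabbit anti-FLK-1 antiserum on anti-rabbit IgG-coated plates measured VEGF-stimulated FLK-1 kinase activity. NIH3T3 C7#3 cells carrying FLK-1 were serum-starved (0.1% FBS) overnight, then exposed to compound (final 1:200 dilution, 0.5% DMSO) for two hours at 37 °C.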

T1 sequence (P35918 20-1345): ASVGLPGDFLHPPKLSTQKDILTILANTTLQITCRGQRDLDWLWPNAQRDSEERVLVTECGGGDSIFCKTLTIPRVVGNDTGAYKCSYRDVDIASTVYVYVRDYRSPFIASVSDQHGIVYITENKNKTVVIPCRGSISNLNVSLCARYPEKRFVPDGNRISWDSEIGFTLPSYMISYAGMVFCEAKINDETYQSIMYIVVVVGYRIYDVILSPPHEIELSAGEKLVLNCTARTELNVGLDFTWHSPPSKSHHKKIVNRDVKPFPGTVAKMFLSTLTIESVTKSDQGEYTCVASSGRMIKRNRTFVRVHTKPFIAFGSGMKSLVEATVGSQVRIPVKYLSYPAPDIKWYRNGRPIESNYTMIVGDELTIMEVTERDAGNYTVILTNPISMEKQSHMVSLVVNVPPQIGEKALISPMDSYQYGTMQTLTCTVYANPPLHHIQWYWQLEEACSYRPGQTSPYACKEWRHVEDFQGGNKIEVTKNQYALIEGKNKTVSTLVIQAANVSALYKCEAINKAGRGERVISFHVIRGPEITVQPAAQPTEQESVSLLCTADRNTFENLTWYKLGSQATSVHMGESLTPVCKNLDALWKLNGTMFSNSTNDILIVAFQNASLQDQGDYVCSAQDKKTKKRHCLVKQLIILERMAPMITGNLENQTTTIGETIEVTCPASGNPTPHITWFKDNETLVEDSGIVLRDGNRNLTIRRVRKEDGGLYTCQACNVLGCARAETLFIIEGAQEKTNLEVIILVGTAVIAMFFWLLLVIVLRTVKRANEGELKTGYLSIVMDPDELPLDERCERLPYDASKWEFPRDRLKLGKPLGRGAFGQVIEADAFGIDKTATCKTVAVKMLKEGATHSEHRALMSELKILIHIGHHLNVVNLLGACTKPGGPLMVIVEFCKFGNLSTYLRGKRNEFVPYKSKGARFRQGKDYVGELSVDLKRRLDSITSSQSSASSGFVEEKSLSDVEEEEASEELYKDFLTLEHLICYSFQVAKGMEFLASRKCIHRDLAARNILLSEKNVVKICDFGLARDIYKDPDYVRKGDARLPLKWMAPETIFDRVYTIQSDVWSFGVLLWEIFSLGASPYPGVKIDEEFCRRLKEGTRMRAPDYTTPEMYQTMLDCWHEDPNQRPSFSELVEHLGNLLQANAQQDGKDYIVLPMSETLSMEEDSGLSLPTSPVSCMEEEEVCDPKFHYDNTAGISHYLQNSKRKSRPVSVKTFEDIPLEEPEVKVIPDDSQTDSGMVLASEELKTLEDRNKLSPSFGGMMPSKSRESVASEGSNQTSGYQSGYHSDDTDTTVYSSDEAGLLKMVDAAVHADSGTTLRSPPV

Structure (SMILES)	Fik Kinase %Inhibition [%]
O=C1Nc2ccc(S(=O)(=O)Nc3ccc(C(F)(F)F)cc3)cc2C1=Cc1coc2c(Br)cc(Br)cc2c1=O [10730/E09]	21.8
COc1cc(C=C2C(=O)Nc3ccc(S(=O)(=O)N4CCOCC4)cc32)cc(OC)c1OC [10730/F04]	18.3
O=C1Nc2ccc(CCCl)cc2C1=Cc1cccc(Oc2ccccc2)c1 [10729/G06]	10.9
CNS(=O)(=O)c1ccc2c(c1)C(=Cc1ccc(-c3ccccc3Cl)o1)C(=O)N2 [10730/D07]	8.8
COc1ccc(C=C2C(=O)Nc3ccc(S(=O)(=O)N4CCOCC4)cc32)c(OC)c1OC [10730/F02]	18.4
O=C1Nc2ccc(I)cc2C1=Cc1ccco1 [10718/B10]	20.1
COc1ccc2ccccc2c1C=C1C(=O)Nc2ccc(CCCl)cc21 [10729/G02]	18.8
Cc1c(Br)ccc2c1C(=Cc1coc3c(Br)cc(Br)cc3c1=O)C(=O)N2 [10730/C09]	14.0
O=C1Nc2ccc(S(=O)(=O)Nc3ccc(C(F)(F)F)cc3)cc2C1=Cc1ccc(N2CCCC2)cc1 [10729/E10]	5.7
Cc1ccsc1C=C1C(=O)Nc2ccc(CCCl)cc21 [10729/G05]	8.7
COc1cc(C=C2C(=O)Nc3ccc(Br)c(C)c32)cc(OC)c1OC [10730/C04]	46.1
CC(=O)n1cc(C=C2C(=O)Nc3ccc(S(=O)(=O)Nc4ccc(C(F)(F)F)cc4)cc32)c2ccccc21 [10730/E05]	8.7
O=C1Nc2ccc(I)cc2C1=Cc1ccc(Cl)c([N+](=O)[O-])c1 [10718/B08]	5.4
O=C1Nc2ccc(S(=O)(=O)N3CCOCC3)cc2C1=Cc1coc2ccc(Cl)cc2c1=O [10730/F06]	21.9
O=C1Nc2ccc(CCCl)cc2C1=Cc1cccnc1 [10729/G08]	-1.0
O=C1Nc2ccc(S(=O)(=O)Nc3ccc(C(F)(F)F)cc3)cc2C1=Cc1cc2ccccc2nc1Cl [10730/E08]	25.1
Cc1cc(C=C2C(=O)Nc3ccc(I)cc32)oc1C [10730/B11]	1.9
COC1CC(C=C2C(=O)Nc3ccc(I)cc32)C(OC)O1 (stereo not shown) [10730/B10]	15.2
COc1cc(OC)c(OC)cc1C=C1C(=O)Nc2ccc(S(=O)(=O)Nc3ccc(C(F)(F)F)cc3)cc21 [10730/E03]	34.5
CNS(=O)(=O)c1ccc2c(c1)C(=Cc1cc(OC)c(OC)c(OC)c1)C(=O)N2 [10730/D04]	9.1
COc1ccc(C=C2C(=O)Nc3ccc(Br)c(C)c32)c(OC)c1OC [10730/C02]	48.8
O=C1Nc2ccc(I)cc2C1=Cc1cc2ccccc2nc1Cl [10730/B08]	4.4
COc1cc(OC)c(OC)cc1C=C1C(=O)Nc2c(Br)cc(Br)cc21 [10730/A03]	-3.2
CC(=O)n1cc(C=C2C(=O)Nc3c(Br)cc(Br)cc32)c2ccccc21 [10730/A05]	-10.8
CNS(=O)(=O)c1ccc2c(c1)C(=CC1CC(OC)OC1OC)C(=O)N2 (stereo not shown) [10730/D10]	-15.3
COc1cc(OC)c(OC)cc1C=C1C(=O)Nc2ccc(S(=O)(=O)N3CCOCC3)cc21 [10730/F03]	11.7
O=C1Nc2ccc(CCCl)cc2C1=Cc1ccncc1 [10729/G09]	-3.3

Structure (SMILES)	Fik Kinase %Inhibition [%]
CNS(=O)(=O)c1ccc2c(c1)C(=Cc1coc3c(Br)cc(Br)cc3c1=O)C(=O)N2 [10730/D09]	9.8
O=C1Nc2c(Br)cc(Br)cc2C1=Cc1ccc(Br)cc1 [10717/A08]	-5.2
CNS(=O)(=O)c1ccc2c(c1)C(=Cc1cc(OC)c(OC)cc1OC)C(=O)N2 [10730/D03]	8.4
Cc1c(Br)ccc2c1C(=Cc1coc3ccc(Cl)cc3c1=O)C(=O)N2 [10730/C06]	5.3
COC1CC(C=C2C(=O)Nc3ccc(Br)c(C)c32)C(OC)O1 (stereo not shown) [10730/C10]	15.4
CSc1ccc(C=C2C(=O)Nc3ccc(CCCl)cc32)cc1 [10729/G04]	12.2
Cc1cc(C=C2C(=O)Nc3ccc(Br)c(C)c32)oc1C [10730/C11]	-8.0
O=C1Nc2c(Br)cc(Br)cc2C1=Cc1coc2ccc(Cl)cc2c1=O [10730/A06]	-7.0
O=C1Nc2ccc(S(=O)(=O)Nc3ccc(C(F)(F)F)cc3)cc2C1=Cc1coc2ccc(Cl)cc2c1=O [10730/E06]	11.1
CNS(=O)(=O)c1ccc2c(c1)C(=Cc1coc3ccc(Cl)cc3c1=O)C(=O)N2 [10730/D06]	5.8
O=C1Nc2ccc(I)cc2C1=Cc1coc2ccc(Cl)cc2c1=O [10730/B06]	2.4
Cc1cc(C=C2C(=O)Nc3c(Br)cc(Br)cc32)oc1C [10730/A11]	6.8
O=C1Nc2ccc(CCCl)cc2C1=CC1C=CCCC1 (stereo not shown) [10729/G11]	-0.5
COc1cc(Br)c(O)c(C=C2C(=O)Nc3ccc(Br)c(C)c32)c1 [10718/C03]	-13.9
O=C1Nc2c(Br)cc(Br)cc2C1=Cc1coc2c(Br)cc(Br)cc2c1=O [10730/A09]	1.9
Cc1c(Br)ccc2c1C(=Cc1ccc3ccccc3c1O)C(=O)N2 [10718/C04]	15.3
COc1ccc(C=C2C(=O)Nc3ccc(S(=O)(=O)Nc4ccc(C(F)(F)F)cc4)cc32)c(OC)c1OC [10730/E02]	24.8
CNS(=O)(=O)c1ccc2c(c1)C(=Cc1cc(C)c(C)o1)C(=O)N2 [10730/D11]	7.7
COc1ccc(C=C2C(=O)Nc3ccc(I)cc32)c(OC)c1OC [10730/B02]	5.0
O=C1Nc2c(Br)cc(Br)cc2C1=Cc1cc2ccccc2nc1Cl [10730/A08]	-2.9
CNS(=O)(=O)c1ccc2c(c1)C(=Cc1ccc(OC)c(OC)c1OC)C(=O)N2 [10730/D02]	12.4
COC1CC(C=C2C(=O)Nc3c(Br)cc(Br)cc32)C(OC)O1 (stereo not shown) [10730/A10]	0.5
COc1cc(C=C2C(=O)Nc3ccc(I)cc32)cc(OC)c1OC [10730/B04]	12.8
COC1CC(C=C2C(=O)Nc3ccc(S(=O)(=O)Nc4ccc(C(F)(F)F)cc4)cc32)C(OC)O1 (stereo not shown) [10730/E10]	26.0
Cc1cc(C=C2C(=O)Nc3ccc(S(=O)(=O)Nc4ccc(C(F)(F)F)cc4)cc32)oc1C [10730/E11]	29.1
O=C1Nc2ccc(CCCl)cc2C1=Cc1ccc(N2CCCC2)cc1 [10729/G10]	-9.1
O=C1Nc2ccc(S(=O)(=O)N3CCOCC3)cc2C1=Cc1cc2ccccc2nc1Cl [10730/F08]	2.1

Structure (SMILES)	Fik Kinase %Inhibition [%]
O=C1Nc2ccc(S(=O)(=O)Nc3ccc(C(F)(F)F)cc3)cc2C1=Cc1ccc(-c2ccccc2Cl)o1 [10730/E07]	12.0
Cc1c(Br)ccc2c1C(=Cc1ccc(-c3ccccc3Cl)o1)C(=O)N2 [10730/C07]	7.3
CCOC(=O)c1c(C)[nH]c(C=C2C(=O)Nc3ccc(Br)c(C)c32)c1C [10718/C02]	26.2
O=C1Nc2ccc(I)cc2C1=Cc1ccc(-c2ccccc2Cl)o1 [10730/B07]	0.6
Cc1c(Br)ccc2c1C(=Cc1cc3ccccc3nc1Cl)C(=O)N2 [10730/C08]	-2.3
Cc1c(O)ccc(C=C2C(=O)Nc3ccc(I)cc32)c1O [10718/B09]	-14.7
COc1ccc(C=C2C(=O)Nc3c(Br)cc(Br)cc32)c(OC)c1OC [10730/A02]	-3.7
CC(=O)n1cc(C=C2C(=O)Nc3ccc(I)cc32)c2ccccc21 [10730/B05]	-0.5
COc1cc(C=C2C(=O)Nc3ccc(S(=O)(=O)Nc4ccc(C(F)(F)F)cc4)cc32)cc(OC)c1OC [10730/E04]	22.1
O=C1Nc2ccc(CCCl)cc2C1=Cc1ccccn1 [10729/G07]	-2.5
O=C1Nc2ccc(S(=O)(=O)Nc3ccc(C(F)(F)F)cc3)cc2C1=Cc1cccnc1 [10729/E08]	10.9
COc1cc(OC)c(OC)cc1C=C1C(=O)Nc2ccc(I)cc21 [10730/B03]	-0.5
COC(=O)c1[nH]c(C)c(C=C2C(=O)Nc3ccc(I)cc32)c1C(=O)OC [10718/B07]	17.7
COc1ccc(C=C2C(=O)Nc3ccc(CCCl)cc32)c2ccccc12 [10729/G03]	10.4
O=C1Nc2ccc(S(=O)(=O)N3CCOCC3)cc2C1=Cc1ccc(-c2ccccc2Cl)o1 [10730/F07]	67.5
O=C1Nc2ccc(I)cc2C1=Cc1ccc([N+](=O)[O-])o1 [10718/B11]	4.5
O=C1Nc2ccc(I)cc2C1=Cc1coc2c(Br)cc(Br)cc2c1=O [10730/B09]	9.4
CC(=O)n1cc(C=C2C(=O)Nc3ccc(S(=O)(=O)N4CCOCC4)cc32)c2ccccc21 [10730/F05]	19.6
CNS(=O)(=O)c1ccc2c(c1)C(=Cc1cn(C(C)=O)c3ccccc13)C(=O)N2 [10730/D05]	11.9
COc1cc(OC)c(OC)cc1C=C1C(=O)Nc2ccc(Br)c(C)c21 [10730/C03]	25.5
O=C1Nc2c(Br)cc(Br)cc2C1=Cc1ccc(-c2ccccc2Cl)o1 [10730/A07]	-18.9
CC(=O)n1cc(C=C2C(=O)Nc3ccc(Br)c(C)c32)c2ccccc21 [10730/C05]	11.4
COc1cc(C=C2C(=O)Nc3c(Br)cc(Br)cc32)cc(OC)c1OC [10730/A04]	-9.9
CNS(=O)(=O)c1ccc2c(c1)C(=Cc1cc3ccccc3nc1Cl)C(=O)N2 [10730/D08]	8.6
O=C1Nc2ccc(S(=O)(=O)Nc3ccc(C(F)(F)F)cc3)cc2C1=CC1C=CCCC1 (stereo not shown) [10729/E11]	70.9

From EP1247803A2, “Indolinone compounds suitable for modulation of protein kinases” (Sugen, Inc., priority 1996, dated 1998)
